The source of these data is paper PMC11969024, “Development of chemokine network inhibitors using combinatorial saturation mutagenesis” (Communications Biology, 2025).

One series relates to Monocytes. Nature of the series: Buffy coat monocyte migration induced by disease chemokine pools, inhibition by peptide. The series is classed as cell-based, human. To be noted: peptide 10 uM; pool at EC50; compared to HD2SCR. An excerpt: (§1) To assess the potential of combinatorially mutated peptides as therapeutic agents in inflammatory disease, we explored their efficacy against pools of chemokines known to be produced in diseased tissues. We developed the chemokine pool approach to represent the naturally occurring mix of chemokines present in diseased tissues as chemokines have well-known synergistic interactions that cannot be recapitulated when studied individually[8],[11],[55]–[60]. We chose three diseases, atherosclerotic plaque, rheumatoid arthritis, and type 1 diabetes as exemplars, as there is considerable evidence supporting the role of chemokines in their pathology[2]–[4]. To develop disease-relevant chemokine pools, we identified well-characterised bulk RNA-sequencing datasets from atherosclerotic plaque (GSE198600) and rheumatoid arthritis synovium (GSE198520)[61],[62]. […] We analysed chemokine expression levels (in transcripts per million) from these datasets (Supplementary Fig. 6). For each disease we designed a synthetic chemokine pool such that individual chemokine molar concentrations were at ratios determined by the mean relative expression of chemokines in the RNA-sequencing dataset. […] In these experiments we also assessed the effect of EVA4, the parental CC-chemokine binding evasin from which the HD2 series was derived.

For series [1], the system named is activated CD8+T-cells (ATC). Kind of series: Activated T-cell (ATC) migration induced by individual chemokines, inhibition by peptide. The following applies: peptide 10 uM; chemokines at EC80; Dunnett's test. The series is classed as cell-based, human. As for the experimental part: Cell lines were confirmed mycoplasma free by monthly testing using a MycoAlert^TM kit (LT07-118, Lonza) following the manufacturer’s instructions. THP1 cells: THP1 cells (ECACC 88081201, a human monocyte leukemia cell line[51]) were obtained from ECACC and were cultured in T175 flasks at 0.3-1 × 10^6 cells/mL in Roswell Park Memorial Institute (RPMI) 1640 medium (R0883, Sigma) with 10% FBS (F9665, Sigma) and 5mM L-glutamine (G7513, Sigma), 37 °C, 5% CO2. J:CXCR1 cells: The J:CXCR1 cell line was cultured in the same manner as THP1 cells at 0.15-1 × 10^6 cells per mL[37]. Activated T-cells: T-cells were isolated, activated and expanded as follows. Briefly, density gradient centrifugation using Lymphoprep^TM density gradient medium (07801, […] Technologies) and a SepMate^TM isolation tube (85450, […] Technologies) was used to isolate peripheral blood mononuclear cells from human leukocyte cones. Two rounds of purification using a human CD8 + T-cell isolation kit (480011, BioLegend) were used to isolate CD8 + T-cells from peripheral blood mononuclear cells. Activation of CD8 + T-cells was performed in ImmunoCult^TM-XF T-cell expansion medium (10982, […] Technologies) with an anti-CD3/anti-CD28 T-cell activator at 25 μl/ml (10991, […] Technologies), supplemented with 10 ng/ml recombinant human IL-2 (200-02, PeproTech) with 1% penicillin/streptomycin. T-cells were passaged every 2–3 days in TexMACS medium (130-097-196, Miltenyi Biotec), supplemented with 10 ng/ml human IL-2 (200-05-250, Peprotech) and incubated at 37 °C in 5% CO2. CD8 + T-cells were frozen at day 10-13 after initial activation, at 20×10^6 cell/ml in TexMACS medium supplemented with 10% DMSO (D2650, Sigma) in liquid nitrogen. Activated CD8^+ T-cells were recovered in TexMACs medium at 0.3 × 10^6 cell/ml and incubated at 37 °C in 5% CO2, 24 h prior to use. For buffy coat experiments a mixture of primary human monocytes, granulocytes and lymphocytes was isolated from human buffy coat. Briefly, RBCs were sedimented in HetaSep (07806, […] Technologies) with 1 mL of HetaSep per 5 mL of blood for 15 min at 37 °C. The buffy coat layer was collected from the top and washed in 50 ml MACS buffer (PBS (P4417, Sigma), 0.5% BSA (A7030, Sigma), 0.075% EDTA (E5134, Sigma), pH 7.2), by centrifugation at 2000 g for 10 min at room temperature. The pellet was resuspended in 10 mL of 1x RBC lysis solution (130-094-183, Miltenyi Biotec) and lysed for 10 min at room temperature. The cells were then washed in MACS buffer twice as above. The final pellet was resuspended in 1 mL of MACS buffer per 5 mL of initial blood volume and counted using cell size FSC-H/SSC-H parameters with gate settings previously defined by immunostaining (see below). The leukocytes were then resuspended in assay buffer for cell migration and used within 30 min of isolation.
Cell counts were determined using an ATTUNE NxT Flow Cytometer with Cytkick autosampler (ThermoFisher), based on cell size parameters FSC-H/SSC-H, with previously defined gate settings. FSC-H/SSC-H gate settings for primary white blood cells from buffy coats were determined using flow cytometry to establish the granulocyte, monocyte and lymphocyte populations (Supplementary Fig. 13). Briefly, cells were labelled with anti-CD3 (Miltenyi Biotec, 130-113-135) to identify the T cell population, anti-CD14 (Miltenyi Biotec, 130-110-578) to identify the monocyte population, and with anti-CD16 (Miltenyi Biotec, 130-113-951) to identify the granulocyte population. Negative control cells were labelled with anti-human IgG1 (Miltenyi Biotec, 130-113-434). All antibodies were allophycocyanin (APC) conjugated. 100,000 white blood cells were added to Eppendorf tubes and centrifuged at 300 g for 3 min. The supernatant was discarded, and the cells resuspended in 98 µL of MACS buffer (1× PBS, 2 mM EDTA and 0.5% BSA, sterile filtered). 2 µl of antibody was added to the cells. […]

Series [2] deals with J:CXCR1 cells (Jurkat cells stably transfected with CXCR1). Kind of series: J:CXCR1 cell migration induced by CXCL6, inhibition by peptide. The series is classed as cell-based, human. The following applies: peptide 10 uM; CXCL6 at EC80; Dunnett's test. As for the experimental part: Cell lines were confirmed mycoplasma free by monthly testing using a MycoAlert^TM kit (LT07-118, Lonza) following the manufacturer’s instructions. THP1 cells: THP1 cells (ECACC 88081201, a human monocyte leukemia cell line[51]) were obtained from ECACC and were cultured in T175 flasks at 0.3-1 × 10^6 cells/mL in Roswell Park Memorial Institute (RPMI) 1640 medium (R0883, Sigma) with 10% FBS (F9665, Sigma) and 5mM L-glutamine (G7513, Sigma), 37 °C, 5% CO2. J:CXCR1 cells: The J:CXCR1 cell line was cultured in the same manner as THP1 cells at 0.15-1 × 10^6 cells per mL[37]. Activated T-cells: T-cells were isolated, activated and expanded as follows. Briefly, density gradient centrifugation using Lymphoprep^TM density gradient medium (07801, […] Technologies) and a SepMate^TM isolation tube (85450, […] Technologies) was used to isolate peripheral blood mononuclear cells from human leukocyte cones. Two rounds of purification using a human CD8 + T-cell isolation kit (480011, BioLegend) were used to isolate CD8 + T-cells from peripheral blood mononuclear cells. Activation of CD8 + T-cells was performed in ImmunoCult^TM-XF T-cell expansion medium (10982, […] Technologies) with an anti-CD3/anti-CD28 T-cell activator at 25 μl/ml (10991, […] Technologies), supplemented with 10 ng/ml recombinant human IL-2 (200-02, PeproTech) with 1% penicillin/streptomycin. […] The final pellet was resuspended in 1 mL of MACS buffer per 5 mL of initial blood volume and counted using cell size FSC-H/SSC-H parameters with gate settings previously defined by immunostaining (see below). […]
(§2) Cell counts were determined using an ATTUNE NxT Flow Cytometer with Cytkick autosampler (ThermoFisher), based on cell size parameters FSC-H/SSC-H, with previously defined gate settings. FSC-H/SSC-H gate settings for primary white blood cells from buffy coats were determined using flow cytometry to establish the granulocyte, monocyte and lymphocyte populations (Supplementary Fig. 13). […]

Series [3] deals with THP1 cells, activated T-cells (ATC), J:CXCR1 cells. Kind of series: Meta-analysis of individual chemokine-induced cell migration experiments. In kind it is cell-based, human. The following applies: seven CC and three CXC chemokines, Dunnett's test. Here is the method: Cell migration assays were performed as follows. THP1 cell migration. Briefly, 300000 cells/well were added to the top chamber of a 5-µm 96-well Transwell insert (3387, Corning) in 50 µL of cell migration media (RPMI-1640 (R0883, Sigma), 0.5% FBS (F9665, Sigma), 4mM L-Glutamine (G7513, Sigma), 0.05% DMSO (D4540, Sigma)). The bottom chamber contained 150 µL of migration media with chemokine and peptide. Cells were migrated at 37 °C in 5% CO2 for 4 h. J:CXCR1 cell migration was performed exactly as above using a 3-µm Transwell insert (3385, Corning). Activated T-cell migration. Briefly, 100000 cells/well were added to the top chamber of a 3-µm Transwell insert (3385, Corning) in 50 µL of migration media (HBSS (14025-092, Life Technologies), 0.1% protease free bovine serum albumin (A7030, Sigma), 0.05% DMSO (D4540, Sigma)). The bottom chamber contained 150 µL of migration media with chemokine and peptide. Cells were migrated at 37 °C in 5% CO2 for 2 h. Buffy coat migration. Briefly, a mixture of all cell types at 100000 cells/well were added to the top chamber of a 3-µm Transwell insert (3385, Corning) in 50 µL of migration media (HBSS (14025-092, Life Technologies), 0.1% protease free bovine serum albumin (A7030, Sigma), 0.05% DMSO (D4540, Sigma). The bottom chamber contained 150 µL of migration media with chemokine and peptide. Cells were migrated at 37 °C in 5% CO2 for 2 h. Analysis of cell migration. The migration plate was shaken at 850 RPM for 10 min, and media from bottom plate transferred to a round-bottomed 96 well plate (353910, Falcon). Cells were counted by flow cytometry as described above. Experiments were performed at chemokine EC80 for individual chemotaxis experiments and at EC50 for the pooled chemokine experiments, with three technical replicates, and at least three biological replicates. Statistical significance of differences between control and test groups was evaluated using a two-sided Dunnett’s test with multiple testing correction. Chemokine EC80 or chemokine pool EC50 values were as determined by performing a chemokine dose-response against the cell type and fitting the dose-response curve with a 3-parameter log-logistic model, where the maximal response is fixed at 100% response. […] IC50 was determined by performing inhibitor dose-response experiments and fitting the dose-response curve with a 3-parameter log-logistic model, fixing the bottom of the curve to zero. […] For summary statistics and comparisons, pEC50, pEC80 and pIC50 were calculated as the negative log10 of EC50, EC80 or IC50 expressed in moles/litre.
Sample size and estimated effect sizes were not formally calculated for cell-based or phage-display experiments and no randomization was performed. […]

For series [4] the following is noted: lyophilised peptide, data provided by the manufacturer, ref GenScript, cited from earlier work.
The test system of another series is THP1 cells. Nature of the series: THP1 cell migration (Transwell) induced by individual chemokines, inhibition by peptide. In kind it is cell-based, human. Here is the method: (§3) Cell lines were confirmed mycoplasma free by monthly testing using a MycoAlert^TM kit (LT07-118, Lonza) following the manufacturer’s instructions. THP1 cells: THP1 cells (ECACC 88081201, a human monocyte leukemia cell line[51]) were obtained from ECACC and were cultured in T175 flasks at 0.3-1 × 10^6 cells/mL in Roswell Park Memorial Institute (RPMI) 1640 medium (R0883, Sigma) with 10% FBS (F9665, Sigma) and 5mM L-glutamine (G7513, Sigma), 37 °C, 5% CO2. J:CXCR1 cells: The J:CXCR1 cell line was cultured in the same manner as THP1 cells at 0.15-1 × 10^6 cells per mL[37]. Activated T-cells: T-cells were isolated, activated and expanded as follows. […] The final pellet was resuspended in 1 mL of MACS buffer per 5 mL of initial blood volume and counted using cell size FSC-H/SSC-H parameters with gate settings previously defined by immunostaining (see below). […]
as §2

The next series relates to Lymphocytes. Nature of the series: Buffy coat lymphocyte migration induced by disease chemokine pools, inhibition by peptide. The series is classed as cell-based, human. To be noted: peptide 10 uM; pool at EC50; compared to HD2SCR.
Text: as §1

The test system of another series is J:CXCR1 cells. Nature of the series: Chemokine dose-response, J:CXCR1 cell migration. In kind it is cell-based, human. The following applies: mean of 7 replicates. Here is the method: as §3, §2

Consider “DDDDWDDYAPITCYFD [HD2CM539, combinatorially mutated HD2 peptide, CM-max group]”, for which the “inhibition of monocyte migration, insulitis pool” value in the series on Monocytes was “significant inhibition”.
As for EEDDYTAYWPLTCYFT [HD2A9W], the “inhibition of CCL19, CCL21, CXCL9, and CXCL11-induced migration of ATCs compared to parental HD2” value in series [1] is “significant improvement in inhibition”. In addition, the “inhibition of CXCL6-induced migration of J:CXCR1 cells compared to parental HD2” value in series [2] is “significant improvement in inhibition”. In series [3], the “migrated cell count over all chemokines studied, compared to HD2 (meta-analysis)” value was “significant improvement over HD2”. The “Solubility, Water” value in series [4] (C-terminal amide) is listed as “Insoluble”. In series [4], the “Solubility, DMSO” value was “Insoluble”; the “Solubility, HCOOH” value is “Soluble”; the “Solubility, PBS” value is “Insoluble”.
Consider “EEDDYTAYAPLTCYFC [HD2T16C, HD2 point mutant]”, for which, in series [1], the “inhibition of CCL19, CCL21, CXCL9, and CXCL11-induced migration of ATCs compared to parental HD2” value was “significant improvement in inhibition”. In addition, the “inhibition of CXCL6-induced migration of J:CXCR1 cells compared to parental HD2” value in series [2] is reported as “significant improvement in inhibition”. In series [3], the “migrated cell count over all chemokines studied, compared to HD2 (meta-analysis)” value was “significant improvement over HD2”.
As for “DWDDWTAYWDLVCYFD [HD2CM3085, combinatorially mutated HD2 peptide, CM-min group]”, in the series on THP1 cells (peptide 0.1 uM, CCL8 at EC80), the “inhibition of CCL8 migration compared to the parental peptide” value is “significantly worse”. Further, the “inhibition of CCL7 migration compared to the parental peptide” value in the series with THP1 cells (peptide 5 uM, CCL7 at EC80) is reported as “no differently”.
With “DDDDWDAYAPIWCYFT [HD2CM452, combinatorially mutated HD2 peptide, CM-maxCC group]”, in the series with Lymphocytes, the “inhibition of lymphocyte migration, atherosclerosis pool” value is on record as “significant inhibition” and the “inhibition of lymphocyte migration, rheumatoid arthritis pool” value was “significant inhibition”.
On to “CXCL6: human chemokine, Peprotech 300-41”, for which, in the series on J:CXCR1 cells, the “Mean pEC50” value is 7.71 [M] and the “Mean pEC80” value is 7.45 [M].
